For 17 compounds, activity coefficient results are on record in the NIST ThermoML archive (doi:10.1016/j.jct.2017.03.004).

A short description of this series: activity coefficient (dimensionless); of the first substance listed, at infinite dilution; xn = mol fraction of the nth substance listed. The following applies: 101.33 kPa, Liquid, Chromatography, x1 = 0.

Numbers after ± are expanded uncertainties.

In the case of `CCO` [ethanol] + N#C[N-]C#N.OCCC[n+]1ccccc1, the activity coefficient was determined as 1.3 ± 0.08 (318.15 K); 1.3 ± 0.08 (328.15 K); 1.3 ± 0.08 (338.15 K); 1.31 ± 0.09 (348.15 K); 1.31 ± 0.09 (358.15 K); 1.31 ± 0.09 (368.15 K).
As to `CCOC(C)=O` [ethyl acetate] + N#C[N-]C#N.OCCC[n+]1ccccc1, the activity coefficient runs as follows: (318.15 K) 6.37 ± 0.43; (328.15 K) 6.6 ± 0.45; (338.15 K) 6.81 ± 0.46; (348.15 K) 7.02 ± 0.48; (358.15 K) 7.23 ± 0.49; (368.15 K) 7.43 ± 0.51.
Take `CCc1ccccc1` [ethylbenzene] + N#C[N-]C#N.OCCC[n+]1ccccc1: the activity coefficient runs as follows: (318.15 K) 16.1 ± 1.1; (328.15 K) 16.4 ± 1.1; (338.15 K) 16.8 ± 1.1; (348.15 K) 17.1 ± 1.2; (358.15 K) 17.4 ± 1.2; (368.15 K) 17.7 ± 1.2.
As to `CCCCCCC` [heptane] + N#C[N-]C#N.OCCC[n+]1ccccc1, the activity coefficient runs as follows: (298.15 K) 582 ± 40; (308.15 K) 527 ± 36; (318.15 K) 481 ± 33; (328.15 K) 441 ± 30; (338.15 K) 407 ± 28; (348.15 K) 377 ± 26. Moreover, the activity coefficient (358.15 K) was 351 ± 24.
In the case of `C=CCCCC` [hex-1-ene] + N#C[N-]C#N.OCCC[n+]1ccccc1, the activity coefficient by setting is: (298.15 K) 130 ± 9; (308.15 K) 125 ± 9; (318.15 K) 120 ± 8; (328.15 K) 115 ± 8; (338.15 K) 111 ± 8; (348.15 K) 107 ± 7. Moreover, the activity coefficient (358.15 K) stood at 103 ± 7.
Turning to `CCCCCC` [hexane] + N#C[N-]C#N.OCCC[n+]1ccccc1, the activity coefficient is 364 ± 25 (298.15 K), 328 ± 23 (308.15 K), 296 ± 20 (318.15 K) and 269 ± 18 (328.15 K).
For `CC(C)c1ccccc1` [isopropylbenzene] + N#C[N-]C#N.OCCC[n+]1ccccc1, the activity coefficient is 29.5 ± 2 (318.15 K); 29.7 ± 2 (328.15 K); 29.8 ± 2 (338.15 K); 30 ± 2.1 (348.15 K); 30.2 ± 2.1 (358.15 K); 30.4 ± 2.1 (368.15 K).
Turning to `CO` [methanol] + N#C[N-]C#N.OCCC[n+]1ccccc1, the activity coefficient was determined as 0.682 ± 0.046 (318.15 K); 0.692 ± 0.047 (328.15 K); 0.703 ± 0.047 (338.15 K); 0.713 ± 0.048 (348.15 K); 0.725 ± 0.048 (358.15 K); 0.733 ± 0.049 (368.15 K).
Turning to `CCCC(=O)OC` [methyl butanoate] + N#C[N-]C#N.OCCC[n+]1ccccc1, the activity coefficient is, setting by setting: (318.15 K) 10.3 ± 0.7; (328.15 K) 10.6 ± 0.7; (338.15 K) 10.9 ± 0.7; (348.15 K) 11.2 ± 0.8; (358.15 K) 11.5 ± 0.8; (368.15 K) 11.7 ± 0.8.
Turning to `COC(C)=O` [methyl ethanoate] + N#C[N-]C#N.OCCC[n+]1ccccc1, the activity coefficient came to 3.28 ± 0.22 (318.15 K); 3.43 ± 0.23 (328.15 K); 3.56 ± 0.24 (338.15 K); 3.71 ± 0.25 (348.15 K); 3.84 ± 0.26 (358.15 K); 3.98 ± 0.27 (368.15 K).
On to `CCC(=O)OC` [methyl propanoate] + N#C[N-]C#N.OCCC[n+]1ccccc1, for which the activity coefficient (318.15 K) amounted to 5.77 ± 0.39; the activity coefficient (328.15 K) came to 5.99 ± 0.41; the activity coefficient (338.15 K) is 6.2 ± 0.42; the activity coefficient (348.15 K) came out at 6.42 ± 0.44; the activity coefficient (358.15 K) amounted to 6.61 ± 0.45; the activity coefficient (368.15 K) was found to be 6.81 ± 0.46.
In the case of `CC1CCCCC1` [methylcyclohexane] + N#C[N-]C#N.OCCC[n+]1ccccc1, the activity coefficient is, setting by setting: (298.15 K) 210 ± 14; (308.15 K) 195 ± 13; (318.15 K) 182 ± 13; (328.15 K) 170 ± 12; (338.15 K) 160 ± 11; (348.15 K) 150 ± 10. In addition, the activity coefficient (358.15 K) was found to be 143 ± 10.
As for `CCCCCCCCC` [nonane] + N#C[N-]C#N.OCCC[n+]1ccccc1, the activity coefficient by setting is: (298.15 K) 1450 ± 100; (308.15 K) 1300 ± 90; (318.15 K) 1180 ± 81; (328.15 K) 1080 ± 74; (338.15 K) 985 ± 68; (348.15 K) 906 ± 62. Moreover, for the setting “358.15 K”, the activity coefficient stood at 837 ± 58.
As for `C=CCCCCCC` [oct-1-ene] + N#C[N-]C#N.OCCC[n+]1ccccc1, the activity coefficient by setting is: (298.15 K) 391 ± 27; (308.15 K) 367 ± 25; (318.15 K) 346 ± 24; (328.15 K) 326 ± 22; (338.15 K) 310 ± 21; (348.15 K) 295 ± 20. Under “358.15 K”, the activity coefficient was 282 ± 19.
Regarding `CCCCCCCC` [octane] + N#C[N-]C#N.OCCC[n+]1ccccc1, the activity coefficient runs as follows: (298.15 K) 930 ± 64; (308.15 K) 846 ± 58; (318.15 K) 772 ± 53; (328.15 K) 710 ± 49; (338.15 K) 654 ± 45; (348.15 K) 605 ± 42. For the same compound, under “358.15 K”, the activity coefficient is 564 ± 39.
As to `CCCCCO` [pentan-1-ol] + N#C[N-]C#N.OCCC[n+]1ccccc1, the activity coefficient (318.15 K) was 4.98 ± 0.34; the activity coefficient (328.15 K) is 4.89 ± 0.33; the activity coefficient (338.15 K) turned out to be 4.81 ± 0.33; the activity coefficient (348.15 K) came to 4.74 ± 0.32; the activity coefficient (358.15 K) turned out to be 4.68 ± 0.32; the activity coefficient (368.15 K) amounted to 4.61 ± 0.31.
`CCCC(C)=O` [pentan-2-one] + N#C[N-]C#N.OCCC[n+]1ccccc1: the activity coefficient amounted to 5.58 ± 0.38 (318.15 K); 5.77 ± 0.39 (328.15 K); 5.96 ± 0.41 (338.15 K); 6.14 ± 0.42 (348.15 K); 6.33 ± 0.43 (358.15 K); 6.5 ± 0.44 (368.15 K).
